The values that follow come from patent publication US20260294884A1 (Insilico Medicine IP Limited, priority 2023, published 2026).

A short description of data set [1]: Kinetic solubility in 50 mM phosphate buffer (pH 7.4). It counts as physicochemical. The settings on record: versus compound 47. How it is done: 10 μL of 10 mM in DMSO of test and control compounds was added into lower chambers of whatman miniuniprep vials, respectively. 490 μL of 50 mM PB (pH 7.4) was added into lower chambers of the whatman miniuniprep vials, respectively. The solubility samples were vortexted for at least 2 minutes. The miniuniprep vials were shaken on a shaker for 24 hours at room temperature at the speed of 800 rpm and then centrifuged for 20 minutes (eg. 4000 rpm). The miniunipreps were compressed to prepare the filtrates for injection into HPLC system to calculate the concentration with standard curve.

In another data set the test system is Caco-2 cells. The data set is described as follows: Permeability, Caco-2 assay. It counts as in vitro ADME. The settings on record: for Mean Papp A to B: Caco-2, pH 7.40, 2 hours, 37 °C. The protocol: Permeability of test compounds was determined in Caco-2 Assay. Caco-2 cells purchased from ATCC were seeded onto […] membranes (PET) in 96-well Corning Insert plates at 1×10^5 cells/cm^2, and refreshed medium every 4~5 days until to the 21st to 28th day for confluent cell monolayer formation. The transport buffer in the study was HBSS with 10.0 mM HEPES at pH 7.40±0.05. Test compound was tested at […] bi-directionally in duplicate. Digoxin was tested at 10.0 μM bi-directionally in duplicate, while nadolol and metoprolol were tested at 2.00 μM in A to B direction in duplicate. Final DMSO concentration was adjusted to less than 1%. The plate was incubated for 2 hours in CO2 incubator at 37±1° C., with 5% CO2 at saturated humidity without shaking. And all samples after mixed with acetonitrile containing internal standard were centrifuged at 3200×g for 10 min. For nadolol and metoprolol, 200 μL supernatant solution was diluted with 600 μL ultra-pure water for LC-MS/MS analysis. For digoxin and test compounds, 200 μL supernatant solution was diluted with 200 μL ultra-pure water for LC-MS/MS analysis. Concentrations of test and control compounds in starting solution, donor solution, and receiver solution were quantified by LC-MS/MS methodologies, using peak area ratio of analyte/internal standard. After transport assay, lucifer yellow rejection assay was applied to determine the Caco-2 cell monolayer integrity.

Data set [2] has as its system LD1-0009-362391 PDX model. Also noted: species or system NCG Mice. The settings on record: mouse, in vivo. The protocol:
About 50-90 mg tumor pieces were implanted subcutaneously on the right flank of each mouse. The treatments were started when the mean tumor size reaches approximately 150 (100-300) mm^3. The tumor size was measured in two dimensions using a caliper, and the volume was expressed in mm^3 using the formula: V=0.5 a×b^2 where a and b are the long and short diameters of the tumor, respectively.
(§1) Mice were assigned into groups using randomized block design based on their tumor volumes. The test article administration and the animal numbers in each study group are shown in the following experimental design table 5, the PDX model information are shown in the table 6.
The PDX model is derived from a patient with invasive breast carcinoma, who received and progressed on multiple prior lines of treatment including docetaxel, epirubicin, cyclophosphamide, gemcitabine, lobaplatin, tamoxifen, nab-paclitaxel, cisplatin, capecitabine, palbociclib and letrozole.
(§2) For routine monitoring, all study animals were monitored for not only tumor growth but also behavior such as mobility, food, and water consumption (by cage side checking only), body weight (BW), eye/hair matting and any other abnormal effect. Any mortality and/or abnormal clinical signs were recorded.
The measurement of tumor size was conducted twice a week. The tumor size was measured in two dimensions using a caliper, and the volume will be expressed in mm^3 using the formula: V=0.5a×b^2 where a and b are the long and short diameters of the tumor, respectively. The tumor sizes are used for the calculations of T/C values. The T/C value (in percent) is an indication of antitumor efficacy, T/C=RTV of treated group/RTV of Control group, RTV=Vt/V0, Vt is the mean volume after treatment on a given day, V0 is the mean tumor volume at the beginning of administration. Meanwhile the tumor volume is used for calculation of TGI of each group according to the following formula: When Tti−Tt0 >0, TGI (%)=[1−(Tti−Tt0)/(Vci−Vc0)]×100; when Tti−Tt0<0, TGI (%)=[1−(Tti−Tt0)/Tt0]×100. […]

A short description of data set [3]: Body weight change in PDX study in NCG mice. It is filed as in vivo. The settings on record: P.O QD × 27; all mice.
Text: as §1, §2
Body weights of all animals were measured twice a week throughout the study. Body weight change, expressed in %, is calculated using the following formula: BWL (%)=(BWi−BW0)/BW0×100, BWi is the body weight, BW0 is the bodyweight on the first day of treatment.
The statistical software GraphPad Prism was used to analyze the difference in tumor volume and body weight between the treatment group and the vehicle control group. All the data is described as Mean±SEM, and one-way ANOVA analysis of variance was performed.

The test system of data set [4] is ER+/KAT6a^high ZR-75-1 breast cancer cell line. Description: In vitro cytotoxicity in ER+/KAT6a^high ZR-75-1 breast cancer cell line (CTG assay, 14 days). It is filed as cell-based, Human. How it is done:
Single agent experiments (n=3 per each compound) were performed to obtain the IC10, IC25, IC50 and IC75 values for each drug to be used hereafter in the combo treatment.
The cytotoxicity was evaluated by CTG assay upon 14 days of treatment and stimulation with 1 nM E2. Statistical analysis was performed by 2 way ANOVA Tukey's multiple comparison test (* 0.01<p<0.05).
Human ER+/KAT6A^high breast cancer cell line ZR-75-1 (ATCC, Virginia, US) was cultured in RPMI 1640 medium (Gibco, Life Technologies, Carlsbad, CA, USA) supplemented with 10% fetal bovine serum (FBS)(Sigma, Saint Louis, CA, USA). All cells were incubated at 37° C., 5% CO2, 80-95% relative humidity.
Stock solutions were added at appropriate concentration in culture medium before the addition to cells.
For the cytotoxicity assay, cells were previously starved 48 h in RPMI 1640 no phenol red supplemented with 8% charcoal stripped FBS, and then seeded at appropriate density (2000 cells/well) in starvation media the day before starting the treatment. […] Concentration range was previously identified in single agent cytotoxic assay for the same time points in order to include in the combination experiment IC10, IC25, IC50 and IC75 values for each drug. After 14 days of treatment, CellTiter-Glo® 2.0 Cell Viability Assay (CTG)(Promega, Madison, WI, USA) was added to assess cell viability. Luminescence was measured 10 min later using Tecan Infinite M200 (Tecan Trading AG, Switzerland).

The next data set deals with T1, KAT6A (Homo sapiens, UniProt Q92794).
T1 construct: purchased Active Motif
T1 sequence (Q92794 whole entry): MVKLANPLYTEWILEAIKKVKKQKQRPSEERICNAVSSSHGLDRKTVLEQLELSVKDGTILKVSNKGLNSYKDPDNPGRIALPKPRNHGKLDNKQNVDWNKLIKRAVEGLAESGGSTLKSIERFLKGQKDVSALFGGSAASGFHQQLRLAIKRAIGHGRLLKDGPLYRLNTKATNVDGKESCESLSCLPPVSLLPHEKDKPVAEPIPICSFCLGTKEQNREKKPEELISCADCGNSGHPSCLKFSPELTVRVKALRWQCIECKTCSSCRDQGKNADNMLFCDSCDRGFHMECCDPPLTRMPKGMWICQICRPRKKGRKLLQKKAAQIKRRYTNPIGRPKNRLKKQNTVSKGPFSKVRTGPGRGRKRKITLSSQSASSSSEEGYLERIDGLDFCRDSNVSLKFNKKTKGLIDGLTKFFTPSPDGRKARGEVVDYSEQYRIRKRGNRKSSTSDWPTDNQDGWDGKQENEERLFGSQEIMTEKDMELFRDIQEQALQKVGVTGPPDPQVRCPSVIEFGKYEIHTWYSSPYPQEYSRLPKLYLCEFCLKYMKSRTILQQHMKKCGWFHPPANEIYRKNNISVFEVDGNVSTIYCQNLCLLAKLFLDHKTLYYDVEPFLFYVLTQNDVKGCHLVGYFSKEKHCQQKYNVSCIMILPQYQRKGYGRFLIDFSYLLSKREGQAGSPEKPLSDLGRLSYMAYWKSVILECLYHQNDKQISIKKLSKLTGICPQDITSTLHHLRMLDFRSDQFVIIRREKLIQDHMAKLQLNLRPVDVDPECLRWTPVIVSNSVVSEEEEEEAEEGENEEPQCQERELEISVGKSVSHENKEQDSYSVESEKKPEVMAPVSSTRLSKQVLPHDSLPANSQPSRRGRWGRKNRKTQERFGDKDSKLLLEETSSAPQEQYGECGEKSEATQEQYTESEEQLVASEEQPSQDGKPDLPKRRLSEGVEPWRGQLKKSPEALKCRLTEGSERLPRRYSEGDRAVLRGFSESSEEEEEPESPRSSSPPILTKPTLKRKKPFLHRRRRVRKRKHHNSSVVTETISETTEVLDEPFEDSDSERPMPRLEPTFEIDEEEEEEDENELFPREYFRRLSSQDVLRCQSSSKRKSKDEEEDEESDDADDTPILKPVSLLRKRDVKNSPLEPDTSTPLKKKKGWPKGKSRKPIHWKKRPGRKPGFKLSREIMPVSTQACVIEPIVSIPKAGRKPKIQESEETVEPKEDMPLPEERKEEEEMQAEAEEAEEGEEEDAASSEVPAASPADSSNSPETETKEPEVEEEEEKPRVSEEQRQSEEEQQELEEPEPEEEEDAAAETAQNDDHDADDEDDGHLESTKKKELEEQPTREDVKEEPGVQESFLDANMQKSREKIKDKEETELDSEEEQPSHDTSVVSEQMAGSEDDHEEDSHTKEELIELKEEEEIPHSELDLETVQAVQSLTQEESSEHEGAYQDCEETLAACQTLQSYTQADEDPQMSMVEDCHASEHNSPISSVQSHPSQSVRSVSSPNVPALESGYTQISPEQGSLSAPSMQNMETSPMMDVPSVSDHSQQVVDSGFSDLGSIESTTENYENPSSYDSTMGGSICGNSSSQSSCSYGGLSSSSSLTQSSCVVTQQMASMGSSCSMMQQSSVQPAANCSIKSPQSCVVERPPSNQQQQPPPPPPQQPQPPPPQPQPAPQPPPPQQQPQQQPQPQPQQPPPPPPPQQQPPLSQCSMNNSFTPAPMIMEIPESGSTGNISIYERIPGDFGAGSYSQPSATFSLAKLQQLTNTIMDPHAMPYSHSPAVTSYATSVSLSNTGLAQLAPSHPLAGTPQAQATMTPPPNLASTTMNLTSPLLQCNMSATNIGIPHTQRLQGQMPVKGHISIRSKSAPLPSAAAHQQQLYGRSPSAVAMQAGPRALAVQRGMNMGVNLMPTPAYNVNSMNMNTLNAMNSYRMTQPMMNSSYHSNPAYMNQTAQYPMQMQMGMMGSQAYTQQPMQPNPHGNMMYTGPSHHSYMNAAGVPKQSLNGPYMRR
The data set is described as follows: KAT6A biochemical assay (radiometric [3H]-acetyl CoA, biotinylated H4 (1-30) peptide). The settings on record: 60 min reaction, room temperature. The protocol:
Inhibition of KAT6A enzymatic activity by test compounds was determined using a radiometric 384-well format assay. A 10-point serial dilution of the test compounds were conducted in DMSO and then a volume of 200 nL was transferred into 384-well assay plate by Echo (Labcyte). 10 μL of 2×enzyme solution (5 nM KAT6A (Active Motif) in assay buffer (50 mM Tris —HCl pH 8.0, 50 mM KCl, 0.1 mM EDTA, 5% glycerol, 1 mM DTT)) was dispensed into assay plate except for low control wells, in which 10 μL of assay buffer was transferred. The plate was incubated at room temperature for 15 min before addition of 10 μL of 2×[^3H]-acetyl coenzyme A (Ac-COA) and substrate peptide mix solution (500 nM (KAT6A) [^3H]-Ac-COA (PerkinElmer) and 800 nM (KAT6A) biotinylated H4 (1-30) peptide (GL Biochem) in assay buffer) to each well to start reaction. The plate was incubated at room temperature for 60 min (KAT6A), and then the reaction was stopped by adding 10 μL of stop solution (cold Ac-COA (Cayman) in 1×assay buffer). […] The plate was read on Microbeta and the inhibition percentage of each compound treated well was calculated based on the equation inh %=(Max-sample)/(Max-Min)*100 where Max is signal from high control wells with enzyme, and Min is signal from low control wells with assay buffer only. […]

The structures appear in SMILES notation. Where “and” joins values, the source holds several entries; their conditions need not be identical. Identical values can stand only once. Like-named read-outs stand apart in the source and are kept apart here.

In the case of `COc1cccc(OC)c1S(=O)(=O)Nc1noc2cc(Oc3nccs3)c3c(c12)OCCC3` [Compound 35, 2,6-dimethoxy-N-(5-(thiazol-2-yloxy)-3,4-dihydro-2H-chromeno[8,7-d]isoxazol-9-yl)benzenesulfonamide], in data set [1], the “kinetic solubility, comparison with otherwise identical compound having X as carbon” value was “improved kinetic solubility”. The “Mean Papp A to B” value in the data set with Caco-2 cells is 8.59 10^-6 cm/s. Moreover, in the data set with Caco-2 cells (versus compound 47), the “permeability, comparison with corresponding compound having X as carbon” value is listed as “improved permeability”.

In the case of `COc1cc(C)nc(OC)c1S(=O)(=O)Nc1noc2cc(Oc3nccs3)cc(OC)c12` [Compound 57, 2,4-dimethoxy-N-(4-methoxy-6-(thiazol-2-yloxy)benzo[d]isoxazol-3-yl)-6-methylpyridine-3-sulfonamide], in the data set on Caco-2 cells, the “Mean Papp A to B” value was 3.38 10^-6 cm/s. In addition, in data set [2], the TGI is 67.7% and 83.8%; the anti-tumor activity result is “potent and dose-dependent anti-tumor activity”; the “mean endpoint TV (tumor volume)” value is 239 mm^3 and 189 mm^3. Further, in data set [3], the body weight result is “maintained the body weight well”. The IC50 in data set [4] (combination experiments, compound alone, 1 nM E2 (FIG. 3B), read-out: IC50 of dose-response curve, used alone (combination experiments)) was 3.78 nM. For the same compound, in data set [4] (single agent, 1 nM E2), the IC10 was determined as 0.3 nM, the IC25 came out at 1.2 nM and the IC75 was 15 nM. The IC50 in data set [4] (single agent, 1 nM E2, read-out: IC50) was determined as 4 nM. The IC50 in data set [4] (with elacestrant (IC25, 56 nM), 1 nM E2 (FIG. 3B), read-out: IC50 of dose-response curve, in combination with elacestrant) is 0.8 nM.

`COc1ccccc1S(=O)(=O)Nc1noc2cc(Oc3ccccn3)cc(OC(F)F)c12` [Compound 27, N-(4-(difluoromethoxy)-6-(pyridin-2-yloxy)benzo[d]isoxazol-3-yl)-2-methoxybenzenesulfonamide] had an IC50 at KAT6A of 100 to 1000 nM.

On KAT6A, `COc1cccc(OC)c1S(=O)(=O)Nc1noc2cc(Oc3cccnn3)cc(OC(F)F)c12` [Compound 29, N-(4-(difluoromethoxy)-6-(pyridazin-3-yloxy)benzo[d]isoxazol-3-yl)-2,6-dimethoxybenzenesulfonamide] returned an IC50 of 100 to 1000 nM.
